{
  "source": "paper doi:10.1101/2025.10.20.683491v1",
  "about": "(biorxiv, 2025)",
  "biological_target": "hERG channel (Homo sapiens, UniProt Q12809, species not given)",
  "sequence (Q12809 whole entry)": "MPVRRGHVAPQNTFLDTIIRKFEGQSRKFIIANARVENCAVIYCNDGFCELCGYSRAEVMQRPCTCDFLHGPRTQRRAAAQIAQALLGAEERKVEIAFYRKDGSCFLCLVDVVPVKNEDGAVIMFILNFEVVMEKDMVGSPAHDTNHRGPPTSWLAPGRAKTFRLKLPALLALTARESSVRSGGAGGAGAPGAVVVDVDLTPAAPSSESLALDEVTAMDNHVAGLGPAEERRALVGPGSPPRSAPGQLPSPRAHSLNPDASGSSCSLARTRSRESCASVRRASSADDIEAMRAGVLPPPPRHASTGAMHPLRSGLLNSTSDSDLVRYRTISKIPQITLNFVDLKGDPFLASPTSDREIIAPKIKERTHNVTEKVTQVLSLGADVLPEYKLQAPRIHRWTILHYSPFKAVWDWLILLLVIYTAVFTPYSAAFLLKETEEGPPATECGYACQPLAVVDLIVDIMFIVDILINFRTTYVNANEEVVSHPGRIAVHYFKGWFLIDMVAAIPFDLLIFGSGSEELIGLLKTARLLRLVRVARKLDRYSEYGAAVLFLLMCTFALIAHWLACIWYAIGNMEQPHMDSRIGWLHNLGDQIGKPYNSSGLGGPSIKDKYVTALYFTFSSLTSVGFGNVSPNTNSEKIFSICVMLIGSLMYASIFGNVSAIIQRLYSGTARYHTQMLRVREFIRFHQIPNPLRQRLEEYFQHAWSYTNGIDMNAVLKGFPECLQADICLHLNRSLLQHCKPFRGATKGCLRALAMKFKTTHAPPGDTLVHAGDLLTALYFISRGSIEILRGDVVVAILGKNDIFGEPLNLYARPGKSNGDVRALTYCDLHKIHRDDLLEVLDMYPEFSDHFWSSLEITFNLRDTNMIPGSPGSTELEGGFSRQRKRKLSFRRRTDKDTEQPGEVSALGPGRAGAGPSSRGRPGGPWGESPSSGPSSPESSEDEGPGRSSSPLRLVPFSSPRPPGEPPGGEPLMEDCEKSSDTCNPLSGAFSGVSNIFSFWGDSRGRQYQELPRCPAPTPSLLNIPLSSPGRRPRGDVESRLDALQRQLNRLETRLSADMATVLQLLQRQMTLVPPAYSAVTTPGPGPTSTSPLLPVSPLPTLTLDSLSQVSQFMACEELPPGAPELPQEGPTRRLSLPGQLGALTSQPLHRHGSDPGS",
  "assay": "hERG channel inhibition assay",
  "type": "cell-based",
  "data": [
    {"molecule": "CNC(=O)C[C@@H](NC(=O)C[C@H](Cc1c[nH]c2ccccc12)NC(=O)[C@@H]1CCCC[C@H]1NCc1cnc(-c2sc(C)nc2C)o1)c1ccccc1", "note": "[DEL-C1]", "values": [
      {"measurement": "IC50", "result": "> 100", "unit": "µM"}
    ]}
  ]
}
